From PubChem BioAssay AID1963962 (Molecular Pharmacology Branch, DTP, NCI, 2024)
pIC50: −log10 of the molar value.

System: 967376-340-R-J2-PDC multicell spheroid viability
Assay: Anticancer human tumor 967376-340-R-J2-PDC patient-derived colon adenocarcinoma cell line growth inhibition [PI3K]
Details: for pIC50: curve of first compound; for viability, T/C: stronger effect = lower value
Method in brief: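 Tumor cells grown as multi-cell spheroids with HUVEC endothelial cells and MSC fibroblast-like stroma were treated with targeted agents combined with inavolisib, alpelisib, duvelisib or copanlisib. Doses fell in half-log steps from near clinical Cmax, else from 10 microM. Viability was measured.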
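Note: spheroids exposed to agents for 7 days before read-out.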
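Throughout, for viability, T/C: luminescence used as surrogate of cell viability.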

Q: Which results are given for `C[C@@H](NC(=O)c1ncnc(N)c1Cl)c1ncc(C(=O)Nc2cc(C(F)(F)F)c(Cl)cn2)s1` + COc1c(OCCCN2CCOCC2)ccc2c3n(c(=NC(=O)c4cnc(N)nc4)nc12)CCN3?
A: pIC50 (second compound 0.00316 µM): < 5.00; pIC50 (second compound 0.01 µM): < 5.00; pIC50 (second compound 0.0316 µM): < 5.00; pIC50 (second compound 0.1 µM): < 5.00; pIC50 (second compound 0.316 µM): > 7.50; pIC50 (second compound 1 µM): > 7.50; viability, T/C (second compound 0.00316 µM, first compound 0.0316 µM): 94.3%; viability, T/C (second compound 0.00316 µM, first compound 0.1 µM): 86.9%; viability, T/C (second compound 0.00316 µM, first compound 0.316 µM): 80.6%; viability, T/C (second compound 0.00316 µM, first compound 1 µM): 89.7%; viability, T/C (second compound 0.00316 µM, first compound 3.16 µM): 120%; viability, T/C (second compound 0.00316 µM, first compound 10 µM): 123%; viability, T/C (second compound 0.01 µM, first compound 0.0316 µM): 93.2%; viability, T/C (second compound 0.01 µM, first compound 0.1 µM): 84.5%; viability, T/C (second compound 0.01 µM, first compound 0.316 µM): 91.9%; viability, T/C (second compound 0.01 µM, first compound 1 µM): 100%; viability, T/C (second compound 0.01 µM, first compound 3.16 µM): 112%; viability, T/C (second compound 0.01 µM, first compound 10 µM): 91.3%; viability, T/C (second compound 0.0316 µM, first compound 0.0316 µM): 67.7%; viability, T/C (second compound 0.0316 µM, first compound 0.1 µM): 77.1%; viability, T/C (second compound 0.0316 µM, first compound 0.316 µM): 71.9%; viability, T/C (second compound 0.0316 µM, first compound 1 µM): 63%; viability, T/C (second compound 0.0316 µM, first compound 3.16 µM): 93.3%; viability, T/C (second compound 0.0316 µM, first compound 10 µM): 107%; viability, T/C (second compound 0.1 µM, first compound 0.0316 µM): 66.6%; viability, T/C (second compound 0.1 µM, first compound 0.1 µM): 51.5%; viability, T/C (second compound 0.1 µM, first compound 0.316 µM): 70.1%; viability, T/C (second compound 0.1 µM, first compound 1 µM): 62.7%; viability, T/C (second compound 0.1 µM, first compound 3.16 µM): 62.8%; viability, T/C (second compound 0.1 µM, first compound 10 µM): 70.2%; viability, T/C (second compound 0.316 µM, first compound 0.0316 µM): 49%; viability, T/C (second compound 0.316 µM, first compound 0.1 µM): 49.6%; viability, T/C (second compound 0.316 µM, first compound 0.316 µM): 49.2%; viability, T/C (second compound 0.316 µM, first compound 1 µM): 43.2%; viability, T/C (second compound 0.316 µM, first compound 3.16 µM): 56.6%; viability, T/C (second compound 0.316 µM, first compound 10 µM): 62.6%; viability, T/C (second compound 1 µM, first compound 0.0316 µM): 43%; viability, T/C (second compound 1 µM, first compound 0.1 µM): 33%; viability, T/C (second compound 1 µM, first compound 0.316 µM): 38.5%; viability, T/C (second compound 1 µM, first compound 1 µM): 38.1%; viability, T/C (second compound 1 µM, first compound 3.16 µM): 45.7%; viability, T/C (second compound 1 µM, first compound 10 µM): 45%
